Legend:
[1] = molecular target: T1, recombinant GC (Homo sapiens, UniProt P04062, R534H); experiment: stabilization assay of recombinant GC at 37° C.; assay type: biochemical; conditions: recombinant GC incubated with peptide at 37° C.
T1 construct: purchased Genzyme Therapeutics, Boston, USA
T1 sequence (P04062 40-536 R534H): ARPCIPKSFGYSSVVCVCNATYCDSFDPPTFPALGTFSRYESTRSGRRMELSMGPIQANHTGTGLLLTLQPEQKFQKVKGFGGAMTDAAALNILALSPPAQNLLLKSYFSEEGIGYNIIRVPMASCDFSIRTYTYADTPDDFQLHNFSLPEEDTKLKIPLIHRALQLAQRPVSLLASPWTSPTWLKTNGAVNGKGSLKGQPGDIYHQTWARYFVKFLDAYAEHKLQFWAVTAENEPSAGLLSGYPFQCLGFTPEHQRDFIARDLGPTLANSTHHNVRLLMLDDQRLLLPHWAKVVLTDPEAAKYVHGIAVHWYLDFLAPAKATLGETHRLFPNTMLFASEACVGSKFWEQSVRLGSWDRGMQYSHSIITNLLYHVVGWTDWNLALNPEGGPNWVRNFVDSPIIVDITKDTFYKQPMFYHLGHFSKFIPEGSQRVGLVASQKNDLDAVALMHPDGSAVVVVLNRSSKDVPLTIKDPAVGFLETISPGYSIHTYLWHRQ
Procedure: Proteins were visualized by coomassie staining (CBB). […] See also FIG. 6.
To address the functional impact of the observed interaction between the helix 5 peptide and recombinant GC, we measured GC activity in the presence of a one- to tenfold molar excess of the helix 5 peptide. […] No effect on enzymatic activity after incubation with the helix 5 peptide or the LIMP-2 ectodomain could be found for recombinant α-mannosidase (LAMAN) further emphasizing the specificity of the helix 5 peptide on GC activity (FIG. 6E). […] To analyze if the increase in GC activity is due to stabilization of the enzyme, recombinant GC was incubated with the helix 5 and the control peptide at 37° C. and the activity of GC was measured at regular intervals (FIG. 3F).

[2] = molecular target: bovine serum albumin (BSA) (Bos taurus, UniProt P02769); experiment: peptide pulldown of albumin (BSA); assay type: binding; conditions: neutral pH
Sequence of bovine serum albumin (BSA) (P02769 25-607): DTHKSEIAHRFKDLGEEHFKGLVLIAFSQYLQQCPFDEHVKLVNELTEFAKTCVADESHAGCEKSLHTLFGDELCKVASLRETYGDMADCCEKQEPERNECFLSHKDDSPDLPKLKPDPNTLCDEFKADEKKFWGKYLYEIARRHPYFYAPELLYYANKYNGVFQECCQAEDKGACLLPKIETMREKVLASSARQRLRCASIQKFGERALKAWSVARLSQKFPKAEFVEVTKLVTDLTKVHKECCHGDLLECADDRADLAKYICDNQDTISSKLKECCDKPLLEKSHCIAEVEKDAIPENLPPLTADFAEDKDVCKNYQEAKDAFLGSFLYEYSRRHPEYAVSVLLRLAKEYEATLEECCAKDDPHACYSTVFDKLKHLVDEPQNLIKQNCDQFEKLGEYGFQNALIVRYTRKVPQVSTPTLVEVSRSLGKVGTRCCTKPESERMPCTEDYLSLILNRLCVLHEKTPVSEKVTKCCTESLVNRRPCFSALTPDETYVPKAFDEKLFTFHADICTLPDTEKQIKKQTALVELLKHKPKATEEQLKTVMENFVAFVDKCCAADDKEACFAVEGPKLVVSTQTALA
Procedure: FIG. 6: Characterization of a helical LIMP-2-derived peptide. […] B) In vitro peptide pulldown assay: helix 5 peptides were incubated with recombinant LAMAN and bovine serum albumin (BSA). INPUT and BOUND fractions were loaded onto SDS-PAGE and proteins visualized by coomassie staining (CBB). C) Densitometry of LAMAN and BSA protein bound to peptide, normalized to protein fraction bound to beads only (buffer; n=2-3). D) and E) Activity assay of recombinant (D) GC and (E) LAMAN incubated with different excess molarities (1×-10×) of helix 5 peptide (n=β-5) and LIMP-2 ectodomain (n=4). GC activities were normalized and statistical analyses compared to 0 input of BSA/helix 5 peptide. F) Peptide-pulldown of GC constructs overexpressed in N2a cells with subsequent Western blot analysis (α-hGC) utilizing helix 5 and the 3×D control peptide as a negative binding control. G) Densitometry of GC protein bound to peptides; each construct is normalized to buffer only. H) Live-cell lysosomal GC activity of H4 cells after uptake of helix 5 and 3×D TAT peptides. GC activity was measures every 30 minutes up to 3.5 hours. Cells were treated with DMSO or the “lysosomal inhibitor” bafilomycinA1. […] Lysosomal activity is calculated by subtracting the AUC of DMSO with the AUC of bafilomycinA1 treated samples (n=4). […] GC activity was measured from 16-74 hours and is shown in mU/mg (n=3). […]

“Biotin-Ttds-LREIIEAMLKAYQQKLFVTHTVDE [helix 5 peptide]” was tested, and the “GC enzymatic activity remaining at 72 hours” value [1] was “still displayed significant enzymatic activity” and the “interaction with albumin (BSA)” value [2] was “no interaction”.

Source: US10286038B2, “Lysosome membrane protein 2 (LIMP-2) based peptides and related uses” (Northwestern University, priority 2016, dated 2019)
